Data as given in PubChem BioAssay AID1918993 (Molecular Pharmacology Branch, DTP, NCI, 2023).

Test system: 233499-124-R-J3-PDC complex spheroid growth
Assay: Anticancer human tumor 233499-124-R-J3-PDC patient-derived colon adenocarcinoma cell line growth inhibition [AhR]
Conditions: for IC50: curve of first compound; for viability, T/C: stronger effect = lower value
Description: Multicellular complex tumor spheroid response to aryl hydrocarbon receptor antagonists in combination with a variety of drugs and investigational agents in selected tumor cell lines
The current study was undertaken to assess response to aryl hydrocarbon receptor antagonists in combination with standard-of-care drugs and investigational agents in solid tumor complex spheroid models. Complex spheroids include a stromal component modeled by human endothelial cells (HUVEC) and fibroblasts modeled by human mesenchymal stem cells (MSCs). The concentration ranges selected for each drug and investigational agent were based upon clinically achievable concentrations if the clinical Cmax of the agent was known.
Compounds. The drugs and investigational agents: BAY 2416964 (NSC825713), GNF351 (NSC835774), CH-223191 (NSC835775), CPI-455 (NSC825282), aza-TdCyd (NSC777586), decitabine (NSC127716), belinostat (NSC758774), entinostat (NSC756642), pevonedistat (NSC761192), tazemetostat (NSC777109), talazoparib (NSC765396), olaparib (NSC753686), selinexor (NSC780203), nedisertib (M3814, NSC802822), bortezomib (NSC756655), venetoclax (NSC766270), doxorubicin (NSC123127), elimusertib (BAY189344, NSC800525), ceralasertib (AZD6738, NSC777638), TAK-243 (NSC785004), alisertib (NSC759677), etoposide (NSC141540), topotecan (NSC609699), eribulin (NSC707389), gemcitabine (NSC613327), carboplatin (NSC241240), cisplatin (NSC119875), and SN-38 (NSC673596) were obtained from the National Cancer Institute (NCI) Developmental Therapeutics Program Chemical Repository (32). The FDA-approved anticancer drug set is available from the Developmental Therapeutics Program at https://dtp.cancer.gov/organization/dscb/obtaining/available plates.htm. […] The stock solutions were prepared in dimethyl sulfoxide (DMSO, Sigma-Aldrich, St. Louis, MO, cat. D2650), except for the platinum compounds which were prepared in saline (Quality Biological, Gaithersburg, MD, cat. 114-055-101), at 800-fold the tested concentration and stored at -70 degrees C prior to their use. All drugs and investigational agents were tested over a range starting from a high concentration at or near the clinical Cmax and decreasing in half-log increments. If the clinical Cmax for an agent had not been determined, the highest concentration tested was 10 microM (Table 1).
Cell Culture. All cells were maintained in an incubator at 37 degrees C and 5% CO2 with 95% humidity. The PDC lines were cultured according to standard operating procedures established by the NCI PDMR (https://pdmr.cancer.gov). Briefly, all PDCs were thawed and cultured in Matrigel-coated flasks prepared with a working solution of 1X Ham's F-12 nutrient mix, without supplementation (Invitrogen, Waltham, MA, cat. 11765054), 100 U/mL penicillin-streptomycin (Invitrogen, cat. 15140122), and 2.5% Matrigel (Corning Inc., Corning, NY, cat. 354248) for the first three passages. All PDCs were cultured in complete DMEM/F-12 media containing advanced DMEM/F-12 (Invitrogen, cat. 12634028), 4.9% defined fetal bovine serum, heat inactivated (HyClone Laboratories Inc., Logan, UT, cat. SH30070.03HI), 389 ng/mL hydrocortisone (Sigma-Aldrich, cat. H4001), 9.7 ng/mL human EGF recombinant protein (Invitrogen, cat. PHG0313), 23.4 microg/mL adenine (Sigma-Aldrich, cat. A2786), 97.3 U/mL penicillin-streptomycin (Invitrogen, cat. 15140122), 1.9 mM L-glutamine (Invitrogen, cat. 25030081), and 9.7 microM Y-27632 dihydrochloride (Tocris Bioscience, Bristol, United Kingdom, cat. 1254). The PDCs were cultured in complete DMEM/F12 media without 10 microM Y-27632 dihydrochloride for at least two passages prior to the screen. The established cell lines NCI-H1341 and […] were cultured in DMEM/F-12, HEPES (Invitrogen, cat. 11330032), 5% defined fetal bovine serum (HyClone Laboratories Inc., cat. SH30070.03), ITS premix universal culture supplement [insulin (5 microg/mL), transferrin (5 microg/mL), and selenious acid (5 ng/mL)] […]

[1] = second compound 0.1 µM, first compound 0.0316 µM
[2] = second compound 0.1 µM, first compound 0.1 µM
[3] = second compound 0.1 µM, first compound 0.316 µM
[4] = second compound 0.1 µM, first compound 1 µM
[5] = second compound 0.1 µM, first compound 3.16 µM
[6] = second compound 0.1 µM, first compound 10 µM
[7] = second compound 0.316 µM, first compound 0.0316 µM
[8] = second compound 0.316 µM, first compound 0.1 µM
[9] = second compound 0.316 µM, first compound 0.316 µM
[10] = second compound 0.316 µM, first compound 1 µM
[11] = second compound 0.316 µM, first compound 3.16 µM
[12] = second compound 0.316 µM, first compound 10 µM
[13] = second compound 1 µM, first compound 0.0316 µM
[14] = second compound 1 µM, first compound 0.1 µM
[15] = second compound 1 µM, first compound 0.316 µM
[16] = second compound 1 µM, first compound 1 µM
[17] = second compound 1 µM, first compound 3.16 µM
[18] = second compound 1 µM, first compound 10 µM
[19] = second compound 3.16 µM, first compound 0.0316 µM
[20] = second compound 3.16 µM, first compound 0.1 µM
[21] = second compound 3.16 µM, first compound 0.316 µM
[22] = second compound 3.16 µM, first compound 1 µM
[23] = second compound 3.16 µM, first compound 3.16 µM
[24] = second compound 3.16 µM, first compound 10 µM
[25] = second compound 10 µM, first compound 0.0316 µM
[26] = second compound 10 µM, first compound 0.1 µM
[27] = second compound 10 µM, first compound 0.316 µM
[28] = second compound 10 µM, first compound 1 µM
[29] = second compound 10 µM, first compound 3.16 µM
[30] = second compound 10 µM, first compound 10 µM
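Also: spheroids exposed to agents for seven days before reading.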

What does the source list for CCc1c2c(nc3ccc(O)cc13)-c1cc3c(c(=O)n1C2)COC(=O)[C@]3(O)CC + CC(CO)NC(=O)c1cc(-c2ccc(Cl)cc2)nn(-c2cnn(C)c2)c1=O?
IC50 (second compound 0.1 µM): 300 nM; IC50 (second compound 0.316 µM): > 300 nM; IC50 (second compound 1 µM): > 300 nM; IC50 (second compound 3.16 µM): > 300 nM; IC50 (second compound 10 µM): > 300 nM; viability, T/C (second compound 0.1 µM, first compound 0.000949 µM): 87.3%; viability, T/C (second compound 0.1 µM, first compound 0.003 µM): 98.9%; viability, T/C (second compound 0.1 µM, first compound 0.00949 µM): 73.4%; viability, T/C (second compound 0.1 µM, first compound 0.03 µM): 50.5%; viability, T/C (second compound 0.1 µM, first compound 0.0949 µM): 60.6%; viability, T/C (second compound 0.1 µM, first compound 0.3 µM): 55.1%; viability, T/C (second compound 0.316 µM, first compound 0.000949 µM): 108%; viability, T/C (second compound 0.316 µM, first compound 0.003 µM): 105%; viability, T/C (second compound 0.316 µM, first compound 0.00949 µM): 76.4%; viability, T/C (second compound 0.316 µM, first compound 0.03 µM): 56.2%; viability, T/C (second compound 0.316 µM, first compound 0.0949 µM): 57.9%; viability, T/C (second compound 0.316 µM, first compound 0.3 µM): 66.4%; viability, T/C (second compound 1 µM, first compound 0.000949 µM): 103%; viability, T/C (second compound 1 µM, first compound 0.003 µM): 94.4%; viability, T/C (second compound 1 µM, first compound 0.00949 µM): 80.5%; viability, T/C (second compound 1 µM, first compound 0.03 µM): 64.7%; viability, T/C (second compound 1 µM, first compound 0.0949 µM): 57.9%; viability, T/C (second compound 1 µM, first compound 0.3 µM): 62.5%; viability, T/C (second compound 3.16 µM, first compound 0.000949 µM): 92.8%; viability, T/C (second compound 3.16 µM, first compound 0.003 µM): 88.2%; viability, T/C (second compound 3.16 µM, first compound 0.00949 µM): 71.6%; viability, T/C (second compound 3.16 µM, first compound 0.03 µM): 58%; viability, T/C (second compound 3.16 µM, first compound 0.0949 µM): 72.8%; viability, T/C (second compound 3.16 µM, first compound 0.3 µM): 48.6%; viability, T/C (second compound 10 µM, first compound 0.000949 µM): 93.8%; viability, T/C (second compound 10 µM, first compound 0.003 µM): 70.4%; viability, T/C (second compound 10 µM, first compound 0.00949 µM): 77.9%; viability, T/C (second compound 10 µM, first compound 0.03 µM): 75.4%; viability, T/C (second compound 10 µM, first compound 0.0949 µM): 49.1%; viability, T/C (second compound 10 µM, first compound 0.3 µM): 59.7%

Which results are given for Nc1ccn(C2OC(CO)C(O)C2(F)F)c(=O)n1 (stereo not given) + CC(CO)NC(=O)c1cc(-c2ccc(Cl)cc2)nn(-c2cnn(C)c2)c1=O?
IC50 (second compound 0.1 µM): 136 nM; IC50 (second compound 0.316 µM): 113 nM; IC50 (second compound 1 µM): 149 nM; IC50 (second compound 3.16 µM): 202 nM; IC50 (second compound 10 µM): 130 nM; viability, T/C [1]: 58.7%; viability, T/C [2]: 58.9%; viability, T/C [3]: 18.6%; viability, T/C [4]: 30.1%; viability, T/C [5]: 24.2%; viability, T/C [6]: 29.7%; viability, T/C [7]: 50%; viability, T/C [8]: 54%; viability, T/C [9]: 33.6%; viability, T/C [10]: 35%; viability, T/C [11]: 29.3%; viability, T/C [12]: 35.9%; viability, T/C [13]: 61%; viability, T/C [14]: 57.8%; viability, T/C [15]: 35.3%; viability, T/C [16]: 37.7%; viability, T/C [17]: 28.4%; viability, T/C [18]: 36.1%; viability, T/C [19]: 65%; viability, T/C [20]: 69.7%; viability, T/C [21]: 38.9%; viability, T/C [22]: 31.4%; viability, T/C [23]: 37.9%; viability, T/C [24]: 42.4%; viability, T/C [25]: 60.6%; viability, T/C [26]: 54.1%; viability, T/C [27]: 32.1%; viability, T/C [28]: 31.3%; viability, T/C [29]: 51.9%; viability, T/C [30]: 30.1%

With O=C(c1cc(Cc2n[nH]c(=O)c3ccccc23)ccc1F)N1CCN(C(=O)C2CC2)CC1 + CC(CO)NC(=O)c1cc(-c2ccc(Cl)cc2)nn(-c2cnn(C)c2)c1=O as the compound, how does the IC50 (second compound 0.1 µM) read?
Its IC50 is greater than 10000 nM.

And the IC50 (second compound 0.316 µM)?
The IC50 was greater than 10000 nM.

And the IC50 (second compound 1 µM)?
The IC50 was greater than 10000 nM.

And the IC50 (second compound 3.16 µM)?
The IC50 was greater than 10000 nM.

What about the IC50 (second compound 10 µM) of the same compound?
Its IC50 is greater than 10000 nM.

And the viability, T/C [1]?
Its viability, T/C is 92.2%.

What about the viability, T/C [2] of the same compound?
Its viability, T/C is 112%.

And the viability, T/C [3]?
The viability, T/C was 102%.

What about the viability, T/C [4] of the same compound?
Its viability, T/C is 103%.

What about the viability, T/C [5] of the same compound?
The viability, T/C was 97.6%.

And the viability, T/C [6]?
Its viability, T/C is 103%.

And the viability, T/C [7]?
The viability, T/C was 99.9%.

What about the viability, T/C [8] of the same compound?
The viability, T/C was 92.2%.

What about the viability, T/C [9] of the same compound?
The viability, T/C was 95.1%.

What about the viability, T/C [10] of the same compound?
The viability, T/C was 102%.

What about the viability, T/C [11] of the same compound?
Its viability, T/C is 91.2%.

And the viability, T/C [12]?
The viability, T/C was 104%.

What about the viability, T/C [13] of the same compound?
Its viability, T/C is 91.1%.

What about the viability, T/C [14] of the same compound?
The viability, T/C was 98.9%.

And the viability, T/C [15]?
The viability, T/C was 102%.

And the viability, T/C [16]?
Its viability, T/C is 101%.

What about the viability, T/C [17] of the same compound?
The viability, T/C was 89.2%.

And the viability, T/C [18]?
The viability, T/C was 109%.

What about the viability, T/C [19] of the same compound?
The viability, T/C was 100%.

And the viability, T/C [20]?
Its viability, T/C is 84%.

And the viability, T/C [21]?
The viability, T/C was 105%.

What about the viability, T/C [22] of the same compound?
Its viability, T/C is 87.6%.

And the viability, T/C [23]?
Its viability, T/C is 94.9%.

What about the viability, T/C [24] of the same compound?
The viability, T/C was 89.7%.

What about the viability, T/C [25] of the same compound?
The viability, T/C was 90.1%.

What about the viability, T/C [26] of the same compound?
The viability, T/C was 90%.

And the viability, T/C [27]?
The viability, T/C was 80.8%.

And the viability, T/C [28]?
Its viability, T/C is 85%.

What about the viability, T/C [29] of the same compound?
The viability, T/C was 85.5%.

What about the viability, T/C [30] of the same compound?
Its viability, T/C is 67.5%.
